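Where inhibition never reached the appropriate level, the endpoint shown equals the highest concentration tested. Otherwise, values were interpolated linearly from a five-concentration, 48-hour dose response in 96-well plates. GI50 marks 50% less growth. Definition used: TGI = concentration required for complete inhibition of growth.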
How the values were obtained:
Test in all cases: growth of human tumour cells (NCI), 48 h; in the data active = GI50 below about 0.43 µM; inactive = the rest
786-0 renal = system: 786-0 renal
A498 renal = system: A498 renal
A549 NSCLC = system: A549 NSCLC
ACHN renal = system: ACHN renal
BT-549 breast = system: BT-549 breast
CAKI-1 renal = system: CAKI-1 renal
CCRF-CEM leukemia = system: CCRF-CEM leukemia
COLO 205 colon = system: COLO 205 colon
DU-145 prostate = system: DU-145 prostate
HCC-2998 colon = system: HCC-2998 colon
HCT-116 colon = system: HCT-116 colon
HCT-15 colon = system: HCT-15 colon
HL-60(TB) leukemia = system: HL-60(TB) leukemia
HOP-62 NSCLC = system: HOP-62 NSCLC
HOP-92 NSCLC = system: HOP-92 NSCLC
HS 578T breast = system: HS 578T breast
HT29 colon = system: HT29 colon
IGROV1 ovarian = system: IGROV1 ovarian
K-562 leukemia = system: K-562 leukemia
KM12 colon = system: KM12 colon
LOX IMVI melanoma = system: LOX IMVI melanoma
M14 melanoma = system: M14 melanoma
MALME-3M melanoma = system: MALME-3M melanoma
MCF7 breast = system: MCF7 breast
MDA-MB-231 breast = system: MDA-MB-231 breast
MDA-MB-435 = system: MDA-MB-435
MOLT-4 leukemia = system: MOLT-4 leukemia
NCI-H226 lung = system: NCI-H226 lung
NCI-H23 lung = system: NCI-H23 lung
NCI-H460 lung = system: NCI-H460 lung
NCI-H522 lung = system: NCI-H522 lung
NCI/ADR-RES ovarian = system: NCI/ADR-RES ovarian
OVCAR-3 ovarian = system: OVCAR-3 ovarian
OVCAR-4 ovarian = system: OVCAR-4 ovarian
OVCAR-5 ovarian = system: OVCAR-5 ovarian
OVCAR-8 ovarian = system: OVCAR-8 ovarian
PC-3 prostate = system: PC-3 prostate
RPMI-8226 leukemia = system: RPMI-8226 leukemia
RXF 393 renal = system: RXF 393 renal
SF-268 CNS = system: SF-268 CNS
SF-295 CNS = system: SF-295 CNS
SF-539 CNS = system: SF-539 CNS
SK-MEL-2 melanoma = system: SK-MEL-2 melanoma
SK-MEL-28 melanoma = system: SK-MEL-28 melanoma
SK-MEL-5 melanoma = system: SK-MEL-5 melanoma
SK-OV-3 ovarian = system: SK-OV-3 ovarian
SN12C renal = system: SN12C renal
SNB-19 CNS = system: SNB-19 CNS
SNB-75 CNS = system: SNB-75 CNS
SR leukemia = system: SR leukemia
SW-620 colon = system: SW-620 colon
T-47D breast = system: T-47D breast
TK-10 renal = system: TK-10 renal
U251 CNS = system: U251 CNS
UACC-257 melanoma = system: UACC-257 melanoma
UACC-62 melanoma = system: UACC-62 melanoma
UO-31 renal = system: UO-31 renal

O=C(Nc1cccc(-n2cc(-c3ccncc3)c(-c3ccc(Cl)c(O)c3)n2)c1)c1ccc(N2CCOCC2)c(C(F)(F)F)c1
12.5 µM: TGI (786-0 renal) | TGI (RPMI-8226 leukemia)
7.29 µM: TGI (LOX IMVI melanoma)
44 µM: TGI (NCI-H522 lung)
34.3 µM: TGI (UO-31 renal)
24.6 µM: TGI (CAKI-1 renal)
4.08 µM: TGI (MALME-3M melanoma)
9.1 µM: TGI (M14 melanoma)
15.3 µM: TGI (SK-MEL-2 melanoma)
30.2 µM: TGI (NCI-H23 lung)
24.9 µM: TGI (U251 CNS)
3.81 µM: TGI (HOP-92 NSCLC)
7.55 µM: TGI (SF-295 CNS)
14.8 µM: TGI (NCI-H460 lung)
6.04 µM: TGI (SK-MEL-28 melanoma)
36.8 µM: TGI (UACC-257 melanoma)
> 50 µM: TGI (A498 renal) | TGI (A549 NSCLC) | TGI (ACHN renal) | TGI (BT-549 breast) | TGI (CCRF-CEM leukemia) | TGI (COLO 205 colon) | TGI (DU-145 prostate) | TGI (HCC-2998 colon) | TGI (HCT-116 colon) | TGI (HL-60(TB) leukemia) | TGI (HOP-62 NSCLC) | TGI (HS 578T breast) | TGI (HT29 colon) | TGI (IGROV1 ovarian) | TGI (K-562 leukemia) | TGI (KM12 colon) | TGI (MCF7 breast) | TGI (MDA-MB-435) | TGI (NCI-H226 lung) | TGI (NCI/ADR-RES ovarian) | TGI (OVCAR-3 ovarian) | TGI (OVCAR-4 ovarian) | TGI (OVCAR-5 ovarian) | TGI (OVCAR-8 ovarian) | TGI (PC-3 prostate) | TGI (SF-268 CNS) | TGI (SK-OV-3 ovarian) | TGI (SN12C renal) | TGI (SNB-19 CNS) | TGI (SNB-75 CNS) | TGI (SR leukemia) | TGI (T-47D breast) | TGI (TK-10 renal)
10.2 µM: TGI (SK-MEL-5 melanoma)
25.3 µM: TGI (HCT-15 colon)
5.68 µM: TGI (SW-620 colon)
36.7 µM: TGI (MOLT-4 leukemia)
inactive: GI50 (786-0 renal) 2.83 µM | GI50 (A498 renal) 15.5 µM | GI50 (A549 NSCLC) 3.08 µM | GI50 (ACHN renal) 1.92 µM | GI50 (BT-549 breast) 19.4 µM | GI50 (CAKI-1 renal) 2.78 µM | GI50 (CCRF-CEM leukemia) 1.82 µM | GI50 (COLO 205 colon) > 50 µM | GI50 (DU-145 prostate) 4.2 µM | GI50 (HCC-2998 colon) 5.66 µM | GI50 (HCT-116 colon) 2.87 µM | GI50 (HCT-15 colon) 1.81 µM | GI50 (HL-60(TB) leukemia) 3.81 µM | GI50 (HOP-62 NSCLC) 9.38 µM | GI50 (HOP-92 NSCLC) 0.555 µM | GI50 (HS 578T breast) 1.85 µM | GI50 (HT29 colon) 14.4 µM | GI50 (IGROV1 ovarian) 9.42 µM | GI50 (K-562 leukemia) 1.88 µM | GI50 (KM12 colon) 1.94 µM | GI50 (LOX IMVI melanoma) 1.64 µM | GI50 (M14 melanoma) 1.63 µM | GI50 (MALME-3M melanoma) 1.25 µM | GI50 (MCF7 breast) 2.81 µM | GI50 (MDA-MB-231 breast) 0.975 µM | GI50 (MDA-MB-435) 2.04 µM | GI50 (MOLT-4 leukemia) 2.37 µM | GI50 (NCI-H226 lung) > 50 µM | GI50 (NCI-H23 lung) 4.2 µM | GI50 (NCI-H460 lung) 1.72 µM | GI50 (NCI-H522 lung) 2.31 µM | GI50 (NCI/ADR-RES ovarian) 2.86 µM | GI50 (OVCAR-3 ovarian) 4.81 µM | GI50 (OVCAR-4 ovarian) 39.2 µM | GI50 (OVCAR-5 ovarian) > 50 µM | GI50 (OVCAR-8 ovarian) 3.16 µM | GI50 (PC-3 prostate) 2.15 µM | GI50 (RPMI-8226 leukemia) 1.4 µM | GI50 (RXF 393 renal) 0.626 µM | GI50 (SF-268 CNS) 5.58 µM | GI50 (SF-295 CNS) 1.71 µM | GI50 (SF-539 CNS) 1.37 µM | GI50 (SK-MEL-2 melanoma) 2.89 µM | GI50 (SK-MEL-28 melanoma) 1.5 µM | GI50 (SK-MEL-5 melanoma) 2.47 µM | GI50 (SK-OV-3 ovarian) 20 µM | GI50 (SN12C renal) 22 µM | GI50 (SNB-19 CNS) 4.11 µM | GI50 (SNB-75 CNS) 1.3 µM | GI50 (SR leukemia) 1.63 µM | GI50 (SW-620 colon) 1.72 µM | GI50 (T-47D breast) 35.9 µM | GI50 (TK-10 renal) 21.3 µM | GI50 (U251 CNS) 1.85 µM | GI50 (UACC-257 melanoma) 6.3 µM | GI50 (UACC-62 melanoma) 3.26 µM | GI50 (UO-31 renal) 2.6 µM
18.4 µM: TGI (UACC-62 melanoma)
15.6 µM: TGI (MDA-MB-231 breast)
17.3 µM: TGI (SF-539 CNS)
2.9 µM: TGI (RXF 393 renal)
